Source: patent US20240150841A1, “TAP63 REGULATED ONCOGENIC LONG NON-CODING RNAS” (H. LEE MOFFITT CANCER CENTER AND RESEARCH INSTITUTE, INC., priority 2021, published 2024)
Structures can show the parent of a compound that is named as a salt.

Legend:
[1] = test system: TROLL-2; assay: qRT-PCR for TROLL-2 in triple negative breast cancer cells treated with drugs; format: cell-based, human; settings: for expression of TROLL-2 following treatment: CA1D, BT-20, BT-549, MDA-MB-231, for at least 48 hours following treatment; for expression of TROLL-2 by the end of the 72 hour course: TNBC cell lines
Experimental: (§1) Total RNA was prepared using TRIzol reagent (Invitrogen)5. For gene expression analysis, complementary DNA was synthesized from 5 μg of total RNA using the SuperScript II First-Strand Synthesis Kit (Invitrogen) according to the manufacturer's protocol followed by qRT-PCR using the TaqMan® Universal PCR Master Mix (Applied Biosystems). qRT-PCR was performed using a QuantStudio 6 flex PCR machine (Applied Biosystems) and each qRT-PCR was performed in triplicate.
(§2) We wanted to examiner the effects anti-cancer treatments on the level of TROLLs overtime.

[2] = test system: TROLL-3; assay: qRT-PCR for TROLL-3 in triple negative breast cancer cells treated with drugs; format: cell-based, human; settings: for expression of TROLL-3 following treatment: CA1D, BT-20, BT-549, MDA-MB-231, for at least 48 hours following treatment; for expression of TROLL-3 by the end of the 72 hour course: TNBC cell lines
Experimental: as §1, §2

[3] = test system: CA1D cells; assay: Annexin V assay (apoptosis / cell death) time course in CA1D cells; format: cell-based, human
Experimental: Cells were plated at a density of 1×10^4 cells in 6 replicates in a 96-well plate. Three biological replicates were performed per each assay. To evaluate cell proliferation, the cells were labelled for 3 h with […] EdU (5′-ethynyl-2′-deoxyuridine) and stained using the Click-iT EdU microplate assay (Invitrogen). Apoptosis was monitored by incubating the cells with Annexin V-Alexa Fluor 488 (Essen BioScience) according to the manufacturer's instructions Images were captured and percent of either cell proliferation or apoptosis was quantified using a high-throughput immunofluorescence plate reader and accompanying software (IncuCyte, Essen Bioscience).
To see how effective the administration of an anti-cancer treatment alone or in combination with siRNA targeting TROLL2 and/or TROLL-3 was, CA1D cells were administered treatment and […] of the cells was measured by Annexin V staining. As shown in FIGS. 14A-14F cells with high levels of TROLLs were either limited in response to treatment or resistant.

[4] = molecular target: WDR26 (endogenous) (UniProt Q9H7D7)
Chain of UniProt Q9H7D7 (Q9H7D7 whole entry): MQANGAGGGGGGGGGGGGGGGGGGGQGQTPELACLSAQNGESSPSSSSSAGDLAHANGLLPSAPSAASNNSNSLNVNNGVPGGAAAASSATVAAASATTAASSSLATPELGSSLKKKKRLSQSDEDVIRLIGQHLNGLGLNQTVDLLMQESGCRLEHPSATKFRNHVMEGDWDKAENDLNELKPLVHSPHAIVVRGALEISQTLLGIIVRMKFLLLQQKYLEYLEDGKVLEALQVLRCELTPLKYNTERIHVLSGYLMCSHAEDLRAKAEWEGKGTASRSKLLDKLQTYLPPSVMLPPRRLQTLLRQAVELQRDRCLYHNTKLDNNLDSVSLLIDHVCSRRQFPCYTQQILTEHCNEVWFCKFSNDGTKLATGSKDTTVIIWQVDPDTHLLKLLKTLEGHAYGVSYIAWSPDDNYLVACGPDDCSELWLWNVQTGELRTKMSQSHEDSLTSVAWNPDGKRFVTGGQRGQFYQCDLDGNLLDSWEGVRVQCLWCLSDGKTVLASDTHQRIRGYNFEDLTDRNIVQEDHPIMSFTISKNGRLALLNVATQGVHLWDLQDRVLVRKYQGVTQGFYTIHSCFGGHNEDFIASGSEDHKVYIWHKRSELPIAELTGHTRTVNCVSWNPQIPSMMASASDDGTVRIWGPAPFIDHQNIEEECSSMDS

| Molecule | expression of TROLL-2 following treatment [1] | expression of TROLL-2 by the end of the 72 hour course [1] | expression of TROLL-3 following treatment [2] | expression of TROLL-3 by the end of the 72 hour course [2] | response to drug in TNBC with high levels of TROLLs (in particular TROLL-2 and TROLL-3) [3] | response to drug in TNBC with low levels of TROLLs (in particular TROLL-2 and TROLL-3) [3] | AKT phosphorylation levels (pAKT S473, western blot) [4] |
| --- | --- | --- | --- | --- | --- | --- | --- |
| COc1cccc2c1C(=O)c1c(O)c3c(c(O)c1C2=O)C[C@@](O)(C(=O)CO)C[C@@H]3O[C@H]1C[C@H](N)[C@H](O)[C@H](C)O1 [Adriamycin, Doxorubicin Hydrochloride] | reduced expression | increased expression | reduced expression | increased expression | limited response | sensitivity | – |
| CCCCCOC(=O)Nc1nc(=O)n([C@@H]2O[C@H](C)[C@@H](O)[C@H]2O)cc1F [capecitabine] | reduced expression | increased expression | reduced expression | increased expression | resistance | partial response | – |
| N.N.O=C([O-])C1(C(=O)[O-])CCC1.[Pt+2] [carboplatin] | reduced expression | increased expression | reduced expression | increased expression | resistance | partial response | – |
| O=P1(N(CCCl)CCCl)NCCCO1 (stereo not shown) [cyclophosphamide] | reduced expression | – | reduced expression | – | resistance | partial response | – |
| CC(=O)O[C@@]12CO[C@@H]1C[C@H](O)[C@@]1(C)C(=O)[C@H](O)C3=C(C)[C@@H](OC(=O)[C@H](O)[C@@H](NC(=O)OC(C)(C)C)c4ccccc4)C[C@@](O)([C@@H](OC(=O)c4ccccc4)[C@H]21)C3(C)C [docetaxel] | reduced expression | – | reduced expression | – | limited response | sensitivity | – |
| CC(=O)O[C@H]1C(=O)[C@@]2(C)[C@H]([C@H](OC(=O)c3ccccc3)[C@]3(O)C[C@H](OC(=O)[C@H](O)[C@@H](NC(=O)c4ccccc4)c4ccccc4)C(C)=C1C3(C)C)[C@]1(OC(C)=O)CO[C@@H]1C[C@@H]2O [paclitaxel] | reduced expression | – | reduced expression | – | limited response | sensitivity | – |
| AKT (endogenous) | – | – | – | – | – | – | a decrease in AKT phosphorylation levels |
